Results from the supplement of paper PMC10307832.

Columns and labels:
Assay in all cases: relative viability (nuclei count vs DMSO), 5 days (fraction); higher = more cells survive
NCI-H2009 = tested on: NCI-H2009
Summary of the method: (§1)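 A single step with final 0.05% Triton X-100, 1% formaldehyde and 1 ug/ml Hoechst fixed the cells and stained nuclei 5 days after treatment. Lung cancer cell lines in 1536-well plates had been treated by pin tool the day after seeding with one drug alone or a fixed anchor-drug dose plus five library-drug doses (not always all listed) in √10 steps, and nuclei were counted on 4× images. Relative viability is the ratio of nuclei in treated wells to nuclei in vehicle wells, taken as the median of duplicate plates.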

NCI-H1734 = tested on: NCI-H1734
Summary of the method: as §1

UMC-11 = tested on: UMC-11
Summary of the method: as §1

LC-2-ad = tested on: LC-2-ad
Summary of the method: as §1

HCC-366 = tested on: HCC-366
Summary of the method: as §1

NCI-H23 = tested on: NCI-H23
Summary of the method: as §1

EMC-BAC-2 = tested on: EMC-BAC-2
Summary of the method: as §1

HCC-15 = tested on: HCC-15
Summary of the method: as §1

HARA = tested on: HARA
Summary of the method: as §1

HCC-78 = tested on: HCC-78
Summary of the method: as §1

COR-L23 = tested on: COR-L23
Summary of the method: as §1

NCI-H1793 = tested on: NCI-H1793
Summary of the method: as §1

Q: For CC1(C)CCC(c2ccc(Cl)cc2)=C(CN2CCN(c3ccc(C(=O)NS(=O)(=O)c4ccc(N[C@H](CCN5CCOCC5)CSc5ccccc5)c(S(=O)(=O)C(F)(F)F)c4)cc3)CC2)C1 [Navitoclax] + COc1cccc2cc(-c3nc([C@H]4CC[C@H](C(=O)O)CC4)n4ncnc(N)c34)[nH]c12 [OSI-027] (partner 0.5 µM), which relative viability (NCI-H2009; first compound 0.005 µM) is on record?
A: Its relative viability is 0.598.

Q: And the relative viability (NCI-H2009; first compound 0.01581 µM)?
A: Its relative viability is 0.792.

Q: What about the relative viability (NCI-H2009; first compound 0.05 µM) of the same compound?
A: The relative viability was 0.576.

Q: What about the relative viability (NCI-H2009; first compound 0.1581 µM) of the same compound?
A: Its relative viability is 0.643.

Q: And the relative viability (NCI-H2009; first compound 0.5 µM)?
A: Its relative viability is 0.735.

Q: And the relative viability (NCI-H1734; first compound 0.005 µM)?
A: The relative viability was 0.617.

Q: And the relative viability (NCI-H1734; first compound 0.01581 µM)?
A: The relative viability was 0.822.

Q: And the relative viability (NCI-H1734; first compound 0.1581 µM)?
A: Its relative viability is 0.53.

Q: What about the relative viability (NCI-H1734; first compound 0.5 µM) of the same compound?
A: Its relative viability is 0.622.

Q: What about the relative viability (UMC-11; first compound 0.005 µM) of the same compound?
A: The relative viability was 0.462.

Q: What about the relative viability (UMC-11; first compound 0.01581 µM) of the same compound?
A: Its relative viability is 0.501.

Q: And the relative viability (UMC-11; first compound 0.05 µM)?
A: Its relative viability is 0.471.

Q: What about the relative viability (UMC-11; first compound 0.1581 µM) of the same compound?
A: Its relative viability is 0.422.

Q: What about the relative viability (UMC-11; first compound 0.5 µM) of the same compound?
A: The relative viability was 0.234.

Q: And the relative viability (LC-2-ad; first compound 0.005 µM)?
A: Its relative viability is 0.802.

Q: What about the relative viability (LC-2-ad; first compound 0.01581 µM) of the same compound?
A: Its relative viability is 1.09.

Q: What about the relative viability (LC-2-ad; first compound 0.05 µM) of the same compound?
A: Its relative viability is 0.895.

Q: And the relative viability (LC-2-ad; first compound 0.1581 µM)?
A: Its relative viability is 0.762.

Q: What about the relative viability (LC-2-ad; first compound 0.5 µM) of the same compound?
A: The relative viability was 0.767.

Q: What about the relative viability (HCC-366; first compound 0.005 µM) of the same compound?
A: Its relative viability is 0.912.

Q: What about the relative viability (HCC-366; first compound 0.01581 µM) of the same compound?
A: Its relative viability is 0.941.

Q: And the relative viability (HCC-366; first compound 0.1581 µM)?
A: Its relative viability is 0.972.

Q: And the relative viability (HCC-366; first compound 0.5 µM)?
A: The relative viability was 0.978.

Q: What about the relative viability (NCI-H23; first compound 0.005 µM) of the same compound?
A: The relative viability was 0.704.

Q: What about the relative viability (NCI-H23; first compound 0.01581 µM) of the same compound?
A: The relative viability was 0.691.

Q: And the relative viability (NCI-H23; first compound 0.05 µM)?
A: The relative viability was 0.529.

Q: What about the relative viability (NCI-H23; first compound 0.1581 µM) of the same compound?
A: The relative viability was 0.582.

Q: And the relative viability (NCI-H23; first compound 0.5 µM)?
A: The relative viability was 0.63.

Q: And the relative viability (EMC-BAC-2; first compound 0.005 µM)?
A: The relative viability was 0.392.

Q: What about the relative viability (EMC-BAC-2; first compound 0.01581 µM) of the same compound?
A: The relative viability was 0.362.

Q: What about the relative viability (EMC-BAC-2; first compound 0.05 µM) of the same compound?
A: The relative viability was 0.382.

Q: What about the relative viability (EMC-BAC-2; first compound 0.1581 µM) of the same compound?
A: Its relative viability is 0.351.

Q: And the relative viability (EMC-BAC-2; first compound 0.5 µM)?
A: Its relative viability is 0.372.

Q: And the relative viability (HCC-15; first compound 0.005 µM)?
A: Its relative viability is 0.695.

Q: What about the relative viability (HCC-15; first compound 0.01581 µM) of the same compound?
A: Its relative viability is 0.746.

Q: And the relative viability (HCC-15; first compound 0.05 µM)?
A: The relative viability was 0.573.

Q: And the relative viability (HCC-15; first compound 0.1581 µM)?
A: The relative viability was 0.699.

Q: And the relative viability (HCC-15; first compound 0.5 µM)?
A: Its relative viability is 0.624.

Q: What about the relative viability (HARA; first compound 0.005 µM) of the same compound?
A: The relative viability was 0.538.

Q: What about the relative viability (HARA; first compound 0.01581 µM) of the same compound?
A: The relative viability was 0.684.

Q: And the relative viability (HARA; first compound 0.1581 µM)?
A: Its relative viability is 0.66.

Q: What about the relative viability (HARA; first compound 0.5 µM) of the same compound?
A: The relative viability was 0.459.

Q: What about the relative viability (HCC-78; first compound 0.005 µM) of the same compound?
A: The relative viability was 0.399.

Q: What about the relative viability (HCC-78; first compound 0.01581 µM) of the same compound?
A: Its relative viability is 0.343.

Q: What about the relative viability (HCC-78; first compound 0.1581 µM) of the same compound?
A: The relative viability was 0.349.

Q: And the relative viability (HCC-78; first compound 0.5 µM)?
A: The relative viability was 0.384.

Q: What about the relative viability (COR-L23; first compound 0.005 µM) of the same compound?
A: Its relative viability is 0.839.

Q: What about the relative viability (COR-L23; first compound 0.01581 µM) of the same compound?
A: Its relative viability is 0.814.

Q: And the relative viability (COR-L23; first compound 0.05 µM)?
A: Its relative viability is 0.877.

Q: What about the relative viability (COR-L23; first compound 0.1581 µM) of the same compound?
A: The relative viability was 0.785.

Q: What about the relative viability (COR-L23; first compound 0.5 µM) of the same compound?
A: Its relative viability is 0.779.

Q: What about the relative viability (NCI-H1793; first compound 0.005 µM) of the same compound?
A: Its relative viability is 0.267.

Q: And the relative viability (NCI-H1793; first compound 0.01581 µM)?
A: Its relative viability is 0.414.

Q: And the relative viability (NCI-H1793; first compound 0.1581 µM)?
A: The relative viability was 0.273.
